≈ marks a conversion by molar mass, not a printed value.
What was measured:
Entercoccus faecium 276 = experiment: broth micro-dilution MIC; type: cell-based
Protocol: (§1) The MIC's were determined using a standard broth micro-dilution assay.

[1] = system: Staphylococcus aureus SA1199A; experiment: broth micro-dilution MIC; type: cell-based
Protocol: as §1

[2] = system: Staphylococcus aureus X400; experiment: broth micro-dilution MIC; type: cell-based
Protocol: as §1

[3] = system: Staphylococcus aureus X778; experiment: broth micro-dilution MIC; type: cell-based
Protocol: as §1

[4] = system: Staphylococcus aureus 447; experiment: broth micro-dilution MIC; type: cell-based
Protocol: as §1

[5] = system: Streptococcus pyogenes C203; experiment: broth micro-dilution MIC; type: cell-based
Protocol: as §1

[6] = system: Staphylococcus aureus 491; experiment: broth micro-dilution MIC; type: cell-based
Protocol: as §1

[7] = system: Staphylococcus aureus 446; experiment: broth micro-dilution MIC; type: cell-based
Protocol: as §1

[8] = system: Staphylococcus aureus 489; experiment: broth micro-dilution MIC; type: cell-based
Protocol: as §1

[9] = system: Entercoccus faecium 180-1; experiment: broth micro-dilution MIC; type: cell-based
Protocol: as §1

[10] = system: Streptococcus pneumoniae P1; experiment: broth micro-dilution MIC; type: cell-based
Protocol: (§2) The formula I compounds have in vitro and in vivo activity against Gram-positive pathogenic bacteria. The MIC's were determined using a standard broth micro-dilution assay.

[11] = system: Staphylococcus epidermidis 270; experiment: broth micro-dilution MIC; type: cell-based
Protocol: as §2

Entercoccus faecium 180 = experiment: broth micro-dilution MIC; type: cell-based; conditions: Entercoccus faecium 180
Protocol: as §2

[12] = system: Staphylococcus haemolyticus 415; experiment: broth micro-dilution MIC; type: cell-based
Protocol: as §2

[13] = system: Enterococcus gallinarum 245; experiment: broth micro-dilution MIC; type: cell-based; conditions: Enterococcus gallinarum 245
Protocol: as §2

Entercoccus faecium 2041 = experiment: broth micro-dilution MIC; type: cell-based; conditions: Entercoccus faecium 2041
Protocol: as §2

[14] = system: Staphylococcus haemolyticus 105; experiment: broth micro-dilution MIC; type: cell-based
Protocol: as §2

[15] = system: Staphylococcus aureus S13E; type: cell-based
Protocol: as §1

[16] = system: Staphylococcus aureus SA1199B; type: cell-based
Protocol: as §1

[17] = system: vancomycin-susceptible enterococci; experiment: broth micro-dilution, mean geometric MIC; type: cell-based, Enterococcus faecium and Enterococcus faecalis; conditions: enterococci, 24-hour incubation
[18] = system: vancomycin-resistant enterococci; experiment: broth micro-dilution, mean geometric MIC; type: cell-based, Enterococcus faecium and Enterococcus faecalis; conditions: enterococci, 24-hour incubation

`CNC(CC(C)C)C(=O)NC1C(=O)NC(CC(N)=O)C(=O)NC2C(=O)NC3C(=O)NC(C(=O)NC(C(=O)O)c4cc(O)cc(O)c4-c4cc3ccc4O)C(OC3CC(C)(N)C(O)C(C)O3)c3ccc(c(Cl)c3)Oc3cc2cc(c3OC2OC(CO)C(O)C(O)C2OC2CC(C)(NCc3cccc4ccccc34)C(O)C(C)O2)Oc2ccc(cc2Cl)C1O` (stereo not drawn) [Compound 3] was tested, and the MIC (Entercoccus faecium 276) was ≤ 0.06 µg/mL, the MIC [1] was ≤ 0.06 µg/mL and the MIC [2] was ≤ 0.06 µg/mL. The MIC [3] was ≤ 0.06 µg/mL, the MIC [4] was ≤ 0.06 µg/mL and the MIC [5] was ≤ 0.06 µg/mL. For the same molecule, the MIC [6] was 0.5 µg/mL (≈ 0.289 µM), the MIC [7] was ≤ 0.06 µg/mL and the MIC [8] was ≤ 0.06 µg/mL. For the same molecule, the MIC [9] was ≤ 0.06 µg/mL, the MIC [10] was ≤ 0.06 µg/mL and the MIC [11] was 8 µg/mL (≈ 4.62 µM). The MIC (Entercoccus faecium 180) was 0.5 µg/mL (≈ 0.289 µM), the MIC [12] was 8 µg/mL (≈ 4.62 µM) and the MIC [13] was ≤ 0.06 µg/mL. The MIC (Entercoccus faecium 2041) was ≤ 0.06 µg/mL, the MIC [14] was 4 µg/mL (≈ 2.31 µM) and the MIC [15] was ≤ 0.06 µg/mL. The MIC [16] was ≤ 0.06 µg/mL and the “mean geometric MIC, Vancomycin Sensitive Strains” value [17] was 0.11 µg/mL.

In the case of `CNC(CC(C)C)C(=O)NC1C(=O)NC(CC(N)=O)C(=O)NC2C(=O)NC3C(=O)NC(C(=O)NC(C(=O)O)c4cc(O)cc(O)c4-c4cc3ccc4O)C(OC3CC(C)(N)C(O)C(C)O3)c3ccc(c(Cl)c3)Oc3cc2cc(c3OC2OC(CO)C(O)C(O)C2OC2CC(C)(NCc3cnc4ccccc4c3)C(O)C(C)O2)Oc2ccc(cc2Cl)C1O` (stereo not drawn) [Compound 28], the “mean geometric MIC, Vancomycin Resistant Strains” value [18] was 4.7 µg/mL, the MIC (Entercoccus faecium 276) was ≤ 0.06 µg/mL and the MIC [1] was ≤ 0.06 µg/mL. The MIC [2] was ≤ 0.06 µg/mL, the MIC [3] was ≤ 0.06 µg/mL and the MIC [4] was 1 µg/mL (≈ 0.577 µM). For the same molecule, the MIC [6] was 0.25 µg/mL (≈ 0.144 µM), the MIC [7] was 0.25 µg/mL (≈ 0.144 µM) and the MIC [8] was ≤ 0.06 µg/mL. The MIC [9] was ≤ 0.06 µg/mL, the MIC [11] was 1 µg/mL (≈ 0.577 µM) and the MIC (Entercoccus faecium 180) was 1 µg/mL (≈ 0.577 µM). It also gave an MIC [12] of 8 µg/mL (≈ 4.61 µM), an MIC [13] of 0.25 µg/mL (≈ 0.144 µM) and an MIC (Entercoccus faecium 2041) of 0.25 µg/mL (≈ 0.144 µM). For the same molecule, the MIC [14] was 4 µg/mL (≈ 2.31 µM), the MIC [15] was ≤ 0.06 µg/mL and the “mean geometric MIC, Vancomycin Sensitive Strains” value [17] was 0.71 µg/mL.

In the case of `CNC(CC(C)C)C(=O)NC1C(=O)NC(CC(N)=O)C(=O)NC2C(=O)NC3C(=O)NC(C(=O)NC(C(=O)O)c4cc(O)cc(O)c4-c4cc3ccc4O)C(OC3CC(C)(N)C(O)C(C)O3)c3ccc(c(Cl)c3)Oc3cc2cc(c3OC2OC(CO)C(O)C(O)C2OC2CC(C)(NCc3ccc(-c4ccccc4[N+](=O)[O-])cc3)C(O)C(C)O2)Oc2ccc(cc2Cl)C1O` (stereo not drawn) [Compound 102], the “mean geometric MIC, Vancomycin Resistant Strains” value [18] was 2.0 µg/mL, the MIC (Entercoccus faecium 276) was 0.25 µg/mL (≈ 0.139 µM) and the MIC [1] was ≤ 0.06 µg/mL. For the same molecule, the MIC [2] was ≤ 0.06 µg/mL, the MIC [3] was ≤ 0.06 µg/mL and the MIC [4] was 1 µg/mL (≈ 0.554 µM). For the same molecule, the MIC [5] was ≤ 0.06 µg/mL, the MIC [6] was 1 µg/mL (≈ 0.554 µM) and the MIC [7] was 1 µg/mL (≈ 0.554 µM). The MIC [8] was ≤ 0.06 µg/mL, the MIC [9] was ≤ 0.06 µg/mL and the MIC [10] was ≤ 0.06 µg/mL. It also gave an MIC [11] of 1 µg/mL (≈ 0.554 µM), an MIC [12] of 4 µg/mL (≈ 2.22 µM) and an MIC [13] of 4 µg/mL (≈ 2.22 µM). For the same molecule, the MIC (Entercoccus faecium 2041) was ≤ 0.06 µg/mL, the MIC [14] was 2 µg/mL (≈ 1.11 µM) and the MIC [15] was 1 µg/mL (≈ 0.554 µM). The MIC [16] was 1 µg/mL (≈ 0.554 µM) and the “mean geometric MIC, Vancomycin Sensitive Strains” value [17] was 0.13 µg/mL.

`CNC(CC(C)C)C(=O)NC1C(=O)NC(CC(N)=O)C(=O)NC2C(=O)NC3C(=O)NC(C(=O)NC(C(=O)O)c4cc(O)cc(O)c4-c4cc3ccc4O)C(OC3CC(C)(N)C(O)C(C)O3)c3ccc(c(Cl)c3)Oc3cc2cc(c3OC2OC(CO)C(O)C(O)C2OC2CC(C)(NCc3ccc(OS(C)(=O)=O)cc3)C(O)C(C)O2)Oc2ccc(cc2Cl)C1O` (stereo not drawn) [Compound 149] was tested, and the “mean geometric MIC, Vancomycin Resistant Strains” value [18] was 45 µg/mL, the MIC (Entercoccus faecium 276) was ≤ 0.06 µg/mL and the MIC [1] was ≤ 0.06 µg/mL. The MIC [2] was ≤ 0.06 µg/mL, the MIC [3] was 0.5 µg/mL (≈ 0.281 µM) and the MIC [4] was 4 µg/mL (≈ 2.25 µM). For the same molecule, the MIC [5] was ≤ 0.06 µg/mL, the MIC [6] was 0.5 µg/mL (≈ 0.281 µM) and the MIC [7] was 0.5 µg/mL (≈ 0.281 µM). For the same molecule, the MIC [8] was ≤ 0.06 µg/mL, the MIC [9] was ≤ 0.06 µg/mL and the MIC [10] was ≤ 0.06 µg/mL. It also gave an MIC [11] of 1 µg/mL (≈ 0.563 µM), an MIC (Entercoccus faecium 180) of 1 µg/mL (≈ 0.563 µM) and an MIC [12] of 16 µg/mL (≈ 9.01 µM). The MIC [13] was 16 µg/mL (≈ 9.01 µM), the MIC (Entercoccus faecium 2041) was ≤ 0.06 µg/mL and the MIC [14] was 4 µg/mL (≈ 2.25 µM). For the same molecule, the MIC [16] was 1 µg/mL (≈ 0.563 µM) and the “mean geometric MIC, Vancomycin Sensitive Strains” value [17] was 0.66 µg/mL.
